Laboratory results: ChEMBL document CHEMBL5053488, “Motobamide, an Antitrypanosomal Cyclic Peptide from a Leptolyngbya sp. Marine Cyanobacterium” (J Nat Prod, 2021)
Active and inactive are the calls of the source. No cut-off for these calls is given here. Numbered stars: 1 amine (or outer) side, 2 acyl side, 3 side chain; on linkers, the order of the positions; unused ones are H or OH. Square brackets hold non-standard residues; d marks the D form. Peptide text beside a SMILES is read from it. X1 = CC(C)=CC[C@@]12C[C@@H](C(=O)[*:2])N([*:1])[C@@H]1Nc1ccccc12

Tests used:
[1] = tested on: Trypanosoma brucei rhodesiense; experiment: Antitrypanosomal activity against Trypanosoma brucei rhodesiense IL-1501 assessed as parasite growth inhibition incubated for 69 hrs by AlamarBlue assay; type: functional, organism-based; conditions: IL-1501, 69 h
WI-38 = experiment: Cytotoxicity against human WI-38 cells assessed as cell growth inhibition measured after 72 hrs by MTT assay; type: cell-based; conditions: WI-38, 72 h
HeLa = experiment: Growth inhibition of human HeLa cells at 10 uM incubated for 72 hrs by MTT assay; type: functional, cell-based
HL-60 = experiment: Growth inhibition of human HL-60 cells at 10 uM incubated for 72 hrs by MTT assay; type: functional, cell-based
[2] = Ratio of IC50 for cytotoxicity against human WI-38 cells to IC50 for antitrypanosomal activity against Trypanosoma brucei rhodesiense IL-1501

- IC50 [1]: 2.3 µM
SMILES: CSCC[C@@H]1NC(=O)[C@@H]2CCCN2C(=O)[C@H](C(C)C)NC(=O)[C@@H]2CCCN2C(=O)[C@@H]2CCCN2C(=O)[C@H](CC(C)C)NC(=O)[C@@H]2C[C@@]3(CC=C(C)C)c4ccccc4N[C@H]3N2C(=O)[C@@H]2CCCN2C(=O)[C@H](C(C)C)NC(=O)[C@H](CC(C)C)NC1=O (cyclo(LPPVPMLVP[X1]))
- IC50 (WI-38): 55 µM
- growth inhibition (GI) (HeLa): inactive
- growth inhibition (GI) (HL-60): inactive
- Ratio IC50 [2]: >20
